Measurements reported in US10227356B2, “Compounds, compositions and methods for inhibiting CNKSR1” (Phusis Therapeutics, Inc., priority 2015, dated 2019).
Where two headings read alike, the source gives them in different places.

How the values were obtained:
[1] = target: T1, AKT1 PH-domain (Homo sapiens, UniProt P31749); assay: Surface plasmon resonance binding to AKT PH-domain; conditions: SPR; ND = no binding determined
T1 construct: The PH-domain His-fusion proteins (CNK1 and AKT1) were expressed and immobilized on a NTA chip; made in house
T1 sequence (P31749 5-108 limits assumed): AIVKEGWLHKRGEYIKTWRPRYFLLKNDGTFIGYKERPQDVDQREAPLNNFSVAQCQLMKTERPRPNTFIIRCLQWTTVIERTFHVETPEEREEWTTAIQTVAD
Protocol: All interaction analyses were done with a Biacore T200 Control Software v3.2, and BIAevaluation v2.0 analysis software (Biacore). The PH-domain His-fusion proteins (CNK1 and AKT1) were expressed and immobilized on a NTA chip to a level of 10,000 response units or less. Small molecule analytes at concentrations ranging from 50 μM to 0.010 μM were injected at a high flow rate (30 μL/min). DMSO concentrations in all samples and running buffer were 1-5% (v/v) […]
A commercially available docking package GLIDE was chosen as the docking algorithm used to select and optimize compounds, providing a GlideScore as a rough estimate of binding affinity that was used to rank and select the best compounds. Additionally, ligand-based approaches provided an alternative to structure based drug discovery. Ligand-based virtual screening methodologies can take into account shape and electrostatics and the pharmacophoric features (acceptor, donor, hydrophobic, aromatic, etc.) of its functional groups. Inositol tetraphosphate (IP4) binding to the PH-domain of CNKSR1 provided a good starting point for shape screening. Both structure-based and ligand-based approaches were used to find novel compounds and to refine and improve lead compounds (Tables 2, 3 and 4). SPR interaction analyses for the compounds were performed with a Biacore T200, using BiacoreT200 Control Software v3.2 and BIAevaluation v2.0analysis software (Biacore).

[2] = target: T2, PH-domain of CNKSR1 (Homo sapiens, UniProt Q969H4); assay: Surface plasmon resonance binding to CNK PH-domain
T2 construct: The PH-domain His-fusion proteins (CNK1 and AKT1) were expressed and immobilized on a NTA chip; made in house
T2 sequence (Q969H4 403-502 limits assumed): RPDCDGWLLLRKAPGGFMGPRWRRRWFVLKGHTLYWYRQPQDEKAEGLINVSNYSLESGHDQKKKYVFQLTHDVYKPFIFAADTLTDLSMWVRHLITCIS
Excerpt: The PH-domain His-fusion proteins (CNK1 and AKT1) were expressed and immobilized on a NTA chip to a level of 10,000 response units or less.
Additionally, ligand-based approaches provided an alternative to structure based drug discovery.

[3] = tested on: mut-KRas NSCLC lines; assay: Proliferation assay 2D, mut-KRas NSCLC lines; assay type: cell-based; conditions: for In vitro IC50 against mut-KRas NSCLC 2D ave: mean of 12 mut-KRas NSCLC lines; for IC50: range across mut-Kras cell lines, read-out: In vitro IC50 against mut-KRas NSCLC 2D range
Protocol: A panel of 30 cell lines and an extensive characterization were obtained from Dr. John Minna (UTSW). All cell lines were cultured in RPMI 1640 with 10% FBS. Cells were treated with concentrations of agents at concentrations 0.01 to 50 μM and evaluated as described above. IC50's were determined using Excelfit.

[4] = Pharmacokinetics (PK); assay type: in vivo; parameters: AUC: concentration or dose not given beside the values; conditions: for half-life: read-out: PK T1/2 (converted)
[5] = tested on: wt-KRAS cells; assay: Proliferation assay, wt-KRAS cell lines; assay type: cell-based; conditions: read-out: Ave IC50 wt-KRAS
Protocol: (§1) These cells were cultured in McCoys media with 10% FBS to 80% confluency. […] Cells were incubated for 72 hours with the drugs, and then viability was assessed using an MTS viability assay. Cells were exposed to MTS reagent (Promega) dissolved in PBS (Hyclone) at a concentration of 200 μL reagent/mL media for 2 hours. Absorbance was then read at 490 nm, and viability was expressed as a percentage normalized between the negative control (no cells plated) and the condition of cells with no drug added (100% viability) normalized as the upper limit of viability. A panel of 30 cell lines and an extensive characterization were obtained from Dr. John Minna (UTSW). All cell lines were cultured in RPMI 1640 with 10% FBS. […] IC50's were determined using Excelfit.

[6] = tested on: mut-KRAS cells; assay: Proliferation assay, mut-KRAS cell lines; assay type: cell-based; conditions: read-out: Ave IC50 mut-KRAS
Protocol: as §1

[7] = target: T3, CNK1 (Homo sapiens, UniProt Q969H4); assay: SPR competition, CNK1 binding to PIP3; conditions: read-out: SPR Competition Percent inhibition of CNK1 binding to PIP3 at 50 μM, X = none
T3 construct: The PH-domain His-fusion proteins (CNK1 and AKT1) were expressed and immobilized on a NTA chip; made in house
T3 sequence (Q969H4 403-502 limits assumed): T2 sequence (Q969H4 403-502 limits assumed)

[8] = tested on: mut-KRas NSCLC lines; assay: Proliferation assay 3D, mut-KRas NSCLC lines; assay type: cell-based; conditions: for In vitro IC50 against mut-KRas NSCLC 3D ave: mean of 6 mut-KRas NSCLC lines; for IC50: range across mut-Kras cell lines, read-out: In vitro IC50 against mut-KRas NSCLC 3D range
Protocol: The plates were optimized for the best cell density and found to be 20,000 cells per mL. The lid was removed from a 96-well Greiner plate and turned upside down. 20 μL of the 20,000 cells per mL suspension was then added directly into the middle of the circles found on the lid of the 96-well plate forming a small drop. 100 μL of media was added into the corresponding wells, used to maintain the […] of the drops, and the lid was flipped back over carefully placing it back onto the plate without disturbing the drop. The plate was then placed into the incubator for 3 days to allow the cells to migrate to the bottom of the drop due to gravity. After 3 days, […] of media was added to the corresponding wells a SCIVAX 96-well plate. The lid from the Greiner 96-well plate was removed and placed onto the SCIVAX plate allowing the drop to come in contact with the media and placed back into the incubator. After one hour, 200 μL of media was removed from the corresponding wells carefully without disturbing the spheroid and imaged.

Structure (SMILES): COc1c(/C=C/C(=O)O)cc(NS(=O)(=O)c2cccs2)c2c1OCO2 [Compound 84, (E)-3-(4-methoxy-7-(thiophene-2-sulfonamido)benzo[d][1,3]dioxol-5-yl)acrylic acid]
- AKT KD [1]: No binding

Structure (SMILES): CCOC(=O)CCc1cc(NS(=O)(=O)c2cccs2)c2c(c1OC)OCO2 [Compound 85, ethyl 3-(4-methoxy-7-(thiophene-2-sulfonamido)benzo[d][1,3]dioxol-5-yl)propanoate]
- Kd [1]: > 500 µM
- Kd ([2]; SPR, ND = no binding determined, read-out: CNK KD): > 500 µM

Structure (SMILES): CCOC(=O)/C=C/c1cc(NS(=O)(=O)c2cccs2)c2c(c1OC)OCO2 [Compound 86, (E)-ethyl 3-(4-methoxy-7-(thiophene-2-sulfonamido)benzo[d][1,3]dioxol-5-yl)acrylate]
- Kd [1]: > 500 µM

Structure (SMILES): CN1CC(=O)N(/C=C/c2cc(NS(=O)(=O)c3cccs3)c3c(c2O)OCO3)C1=O [Compound 91, (E)-N-(7-hydroxy-6-(2-(3-methyl-2,5-dioxoimidazolidin-1-yl)vinyl)benzo[d][1,3]dioxol-4-yl)thiophene-2-sulfonamide]
- In vitro IC50 against mut-KRas NSCLC 2D ave [3]: 23 µM
- IC50 [3]: 6 to 35 µM
- Cmax ([4]; in vivo, printed in the T1/2/AUC column): 2200 nM
- half-life ([4]; in vivo): 1 h
- Kd ([2]; Summary table for CNKSR1 inhibitors, read-out: SPR Kd): 36 µM

Structure (SMILES): COc1c(/C=C2\SC(=S)NC2=O)c(NS(=O)(=O)c2cccs2)cc2c1OCO2 [Compound 103]
- IC50 ([5]; average over wt-KRAS lines): 95 µM
- IC50 ([6]; average over mut-KRAS lines): 14.7 µM
- In vitro IC50 against mut-KRas NSCLC 2D ave [3]: 25 µM
- IC50 [3]: 5.1 to 60 µM

Structure (SMILES): O=c1ccoc2c3c(cc(NS(=O)(=O)c4cccs4)c12)OCO3 [Compound 104]
- IC50 ([5]; average over wt-KRAS lines): 100 µM
- inhibition at 50 µM [7]: 0%
- IC50 ([6]; average over mut-KRAS lines): 16.6 µM

Structure (SMILES): CCNC(=O)/C=C/c1c(NS(=O)(=O)c2cccs2)cc2c(c1OC)OCO2 [Compound 105]
- IC50 [5]: 100 µM
- IC50 [6]: 10 µM
- In vitro IC50 against mut-KRas NSCLC 2D ave [3]: 6.7 µM
- IC50 [3]: 1.6 to 94 µM

Structure (SMILES): CNC(=O)/C=C/c1c(NS(=O)(=O)c2cccs2)cc2c(c1OC)OCO2 [Compound 106]
- In vitro IC50 against mut-KRas NSCLC 3D ave [8]: 8.4 µM
- IC50 [8]: 0.096 to 75 µM
- IC50 [5]: 68 µM
- IC50 [6]: 8.4 µM
- In vitro IC50 against mut-KRas NSCLC 2D ave [3]: 16.3 µM
- IC50 [3]: 0.8 to 100 µM
- AUC ([4]; in vivo): 7000 ng·h/mL
- half-life ([4]; in vivo): 1.7 h

Structure (SMILES): COc1c(/C=C/C(N)=O)c(NS(=O)(=O)c2cccs2)cc2c1OCO2 [Compound 107]
- In vitro IC50 against mut-KRas NSCLC 3D ave [8]: 1.5 µM
- IC50 [8]: 0.82 to 75 µM
- IC50 [5]: 100 µM
- IC50 [6]: 1.5 µM
- In vitro IC50 against mut-KRas NSCLC 2D ave [3]: 19.5 µM
- IC50 [3]: 1 to 100 µM
- AUC ([4]; in vivo): 34500 ng·h/mL
- half-life ([4]; in vivo): 3.2 h

Structure (SMILES): COc1c(/C=C/C(=O)NCc2ccco2)c(NS(=O)(=O)c2cccs2)cc2c1OCO2 [Compound 108]
- IC50 [5]: 100 µM
- IC50 [6]: 5.2 µM
- In vitro IC50 against mut-KRas NSCLC 2D ave [3]: 35 µM
- IC50 [3]: 0.2 to 100 µM
- AUC ([4]; in vivo): 3410 ng·h/mL
- half-life ([4]; in vivo): 1 h

Structure (SMILES): COc1c(/C=C/C(=O)N2CCOCC2)c(NS(=O)(=O)c2cccs2)cc2c1OCO2 [Compound 109]
- IC50 [5]: 100 µM
- IC50 [6]: 6.5 µM
- In vitro IC50 against mut-KRas NSCLC 2D ave [3]: 18.9 µM
- IC50 [3]: 0.1 to 100 µM
- AUC ([4]; in vivo): 1200 ng·h/mL
- half-life ([4]; in vivo): 0.75 h

Structure (SMILES): COc1c(/C=C/C(=O)N2CCN(C)CC2)c(NS(=O)(=O)c2cccs2)cc2c1OCO2 [Compound 111]
- In vitro IC50 against mut-KRas NSCLC 3D ave [8]: 4.1 µM
- IC50 [8]: 0.12 to 13.2 µM
- IC50 [5]: 33.7 µM
- IC50 [6]: 4.1 µM
- In vitro IC50 against mut-KRas NSCLC 2D ave [3]: 19.2 µM
- IC50 [3]: 0.6 to 100 µM
- AUC ([4]; in vivo): 30000 ng·h/mL
- half-life ([4]; in vivo): 1 h

Structure (SMILES): COc1c(/C=C/C(=O)NCC(C)O)c(NS(=O)(=O)c2cccs2)cc2c1OCO2 (stereo not drawn) [Compound 112]
- IC50 [5]: 100 µM
- IC50 [6]: 25 µM
- In vitro IC50 against mut-KRas NSCLC 2D ave [3]: 65 µM
- IC50 [3]: 19 to 100 µM

Structure (SMILES): CCOC(=O)/C=C/c1c(NS(=O)(=O)c2cccs2)cc2c(c1OC)OCCO2 [Compound 113]
- IC50 [5]: 100 µM
- IC50 [6]: 55.1 µM
- In vitro IC50 against mut-KRas NSCLC 2D ave [3]: 25 µM
- IC50 [3]: 13.7 to 100 µM

Structure (SMILES): COc1c(/C=C/C(=O)O)c(NS(=O)(=O)c2cccs2)cc2c1OCCO2 [Compound 114]
- IC50 [5]: 100 µM
- IC50 [6]: 85 µM
- In vitro IC50 against mut-KRas NSCLC 2D ave [3]: 57 µM
- IC50 [3]: 12.1 to 100 µM

Structure (SMILES): COc1c(/C=C/CO)c(NS(=O)(=O)c2cccs2)cc2c1OCCO2 [Compound 115]
- IC50 [5]: 100 µM
- IC50 [6]: 39.1 µM
- In vitro IC50 against mut-KRas NSCLC 2D ave [3]: 11.2 µM
- IC50 [3]: 1.6 to 100 µM

Structure (SMILES): CCOC(=O)/C=C/c1cc(NS(=O)(=O)c2cccs2)c2c(c1OC)OCCO2 [Compound 116]
- IC50 ([6]; average over mut-KRAS lines): 100 µM

Structure (SMILES): CCOC(=O)/C=C/c1c(NS(=O)(=O)c2cccs2)cc2c(c1OC)OCO2 [Compound 151, ethyl 3-[4-methoxy-6-(thiophene-2-sulfonamido)-2H-1,3-benzodioxol-5-yl]prop-2-enoate]
- In vitro IC50 against mut-KRas NSCLC 3D ave [8]: 0.69 µM
- IC50 [8]: 0.025 to 2.7 µM
- In vitro IC50 against mut-KRas NSCLC 2D ave [3]: 18 µM
- IC50 [3]: 0.5 to 100 µM
- PK metabolism (remark in place of AUC) ([4]; AUC NA): rapid
- half-life ([4]; in vivo): 0.5 h

Structure (SMILES): COc1c(/C=C/CO)c(NS(=O)(=O)c2cccs2)cc2c1OCO2 [Compound 152, N-{6-[(1E)-3-hydroxyprop-1-en-1-yl]-7-methoxy-2H-1,3-benzodioxol-5-yl}thiophene-2-sulfonamide]
- IC50 [8]: 0.015 to 0.26 µM
- In vitro IC50 against mut-KRas NSCLC 2D ave [3]: 20 µM
- IC50 [3]: 0.1 to 100 µM
- AUC ([4]; in vivo): 7000 ng·h/mL
- half-life ([4]; in vivo): 3.1 h
